Data as given in PubChem BioAssay (NCI).
Several values for one entry are separate records, joined by “and”; a condition that tells them apart may be missing. Equal values may be shown once.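 Each compound was tested at five concentrations against cells in 96-well plates for 48 hours. GI50 marks 50% less growth. TGI is the concentration that stops growth completely.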

How the values were obtained:
Experiment in all cases: growth of human tumour cells (NCI), 48 h
[1] = tested on: UO-31 renal
[2] = tested on: RPMI-8226 leukemia
[3] = tested on: K-562 leukemia
[4] = tested on: 786-0 renal
[5] = tested on: SK-MEL-28 melanoma
[6] = tested on: DU-145 prostate
[7] = tested on: HS 578T breast
[8] = tested on: OVCAR-3 ovarian

| Structure (SMILES) | GI50 [1] [µM] | TGI [1] [µM] | GI50 [2] [µM] | TGI [2] [µM] | GI50 [3] [µM] | TGI [3] [µM] | GI50 [4] | TGI [4] | GI50 [5] [µM] | TGI [5] [µM] | GI50 [6] [µM] | TGI [6] [µM] | GI50 [7] | TGI [7] | GI50 [8] | TGI [8] [µM] |
| --- | --- | --- | --- | --- | --- | --- | --- | --- | --- | --- | --- | --- | --- | --- | --- | --- |
| CNC(=O)c1ccc(N2CCN(Cc3ccc4nc(C)c(=O)[nH]c4c3F)CC2)c(F)n1 | > 100 | > 100 | > 100 | > 100 | > 100 | > 100 | 47.4 µM | > 100 µM | > 100 | > 100 | > 100 | > 100 | 25.3 µM | > 100 µM | > 100 µM | > 100 |
| C#CCOc1cccc(-c2ncnc3cc(NC(=O)CCl)ccc23)c1 | 0.36 | 2.1 | 1.67 | 6.13 | 0.0612 | – | 0.208 µM | 2.26 µM | 1.56 | 4.5 | 1.16 | 2.47 | 1.92 µM | 14.5 µM | 0.617 µM | 2.07 |
| CCCC(=O)NC1=C(Cl)C(=O)c2ccccc2C1=O | – | 8.99 | – | 6.19 | – | 7.43 | – | 8.92 µM | – | 17 | – | 20.9 | – | > 39.9 µM | – | 8.01 |
| C=C1C(=O)O[C@H]2C[C@@H]1CC/C(C)=C/CC/C(C)=C/CC[C@H]2C | 1.12 | 4.02 | 5.46 | 13.9 | 14 | > 57.1 | 14.3 µM | 28.2 µM | 21.4 | 42.9 | 18 | 33.5 | 27.3 µM | > 78 µM | 3.94 µM | 19 |
| C=C(C)C(=O)O[C@H]1C[C@@]23O[C@@H]2CCC(=C[C@H]2OC(=O)C(=C)[C@H]12)COC3O (stereo partly specified) | – | – | – | 63 | – | 44 | – | > 100 µM | – | – | – | > 100 | – | > 100 µM | – | > 100 |
| [Cl][Hg][Cl] | 22.7 | 37.2 | 20 | > 60.3 | 0.302 | 4.33 | 12.6 µM | 25.1 µM | 15.3 | 29.8 | 20.1 | 34.8 | 22.8 µM | 57.4 µM | 15.9 µM | 32.1 |
| O=C(CO[N+](=O)[O-])Nc1ccc(C(=O)/C=C/c2ccc(Cl)cc2)cc1 | 1.52 | 12.1 | 1.41 | 8.36 | 2.6 | > 100 | 11.6 µM | 48 µM | 4.96 | 18.1 | 3.41 | 13.5 | 2.85 µM | 14.2 µM | 2.22 µM | 6.55 |
| O=C(CP(=O)(O)O)NC(CC(=O)OCc1ccccc1)C(=O)OCc1ccccc1 (stereo unspecified) | – | > 100 | – | > 100 | – | > 100 | – | > 100 µM | – | > 100 | – | > 100 | – | > 100 µM | – | > 100 |
| COC(=O)[C@@H](C)C[C@H](Cc1ccccc1)NC(=O)c1csc(CC[C@H](C(C)C)N(C)C(=O)[C@@H](NC(=O)[C@H]2CCCCN2C)C(C)C)n1 | 1.66 | > 33.3 | 0.135 | > 33.3 | 0.131 | > 33.3 | 0.382 µM | > 30.2 µM | 1.45 | > 33.3 | 0.303 | > 19.7 | 0.761 µM | 15.8 µM | 0.108 µM | – |
| COc1cc(OC)cc(N(CCNC(C)C)c2ccc3ncc(-c4cnn(C)c4)nc3c2)c1 | 2.23 | 12.3 | 7.3 | 33.1 | 2.11 | 10.8 | 2.9 µM | 13.6 µM | 10.9 | 24.3 | 5.29 | 17.9 | 1.49 µM | 6.19 µM | 5.6 µM | 20.2 |
| CCc1cccc(C)c1NC(=O)c1sc2nc3c(cc2c1N)CCCCC3 | 6.08 | > 100 | 4.3 | 25 | – | – | 4.58 µM | > 100 µM | 12 | > 100 | 3.28 | > 100 | 4.87 µM | > 100 µM | 2.56 µM | 9.02 |
| COc1cc(C#Cc2ccc(=O)oc2C#Cc2ccccc2)cc(OC)c1OC | 1.51 | 3.04 | 2.33 | 17.7 | 3.67 | > 40.4 | 3.39 µM | 12.2 µM | 2.64 | 7.22 | 3.12 | 10.7 | 5.83 µM | 43.9 µM | 1.93 µM | 3.58 |
| FC(F)(F)c1nc2nc(Cl)c(Cl)nc2n1CCCN1CCOCC1 | – | – | – | > 100 | – | 39.6 | – | > 100 µM | – | > 100 | – | 63.2 | – | > 100 µM | – | > 100 |
| COC(=O)CCc1c[nH]c2ccc(N(CCCl)CCCl)cc12 | 4.81 | > 42.6 | 3.05 | > 55.9 | 9.68 | > 100 | 0.856 µM | > 20.7 µM | 10.5 | 33.6 | 2.27 | > 100 | 15.1 µM | 50.1 µM | 8.05 µM | 49.6 |
| CC(=O)OCC1OC(n2c(-c3ccc(Cl)cc3)ccc(C#N)c2=S)C(OC(C)=O)C(OC(C)=O)C1OC(C)=O (stereo unspecified) | – | > 100 | – | > 100 | – | > 100 | 11.1 µM and 26.2 µM | 55.8 µM and 72.9 µM | – | > 100 | – | > 100 | 5.34 µM and 23.8 µM | 67.3 µM and > 100 µM | 98.7 µM and 48.1 µM | > 100 |
| Fc1ccc2[nH]cc(-c3nonc3-c3c[nH]c4ccc(Br)cc34)c2c1 | 1.39 | 4.36 | 2.49 | 9.91 | 2.22 | 7.38 | 2.16 µM | 4.5 µM | 2.86 | 8.15 | 3.57 | 13.2 | 2.27 µM | 5.96 µM | 2.07 µM | 5.43 |
| Nc1ccc(C2=NN(c3ccccc3)C(c3ccc(Cl)cc3)C2)cc1 (stereo unspecified) | 1.54 | 3.06 | 1.86 | 4.88 | – | – | 2.03 µM | 4.22 µM | 2.07 | 4.68 | 3.54 | 11.3 | 5.7 µM | 50.5 µM | 2.59 µM | 6.88 |
